Assay results reported in patent US8969386B2, “Modulators of CFTR” (Vertex Pharmaceuticals Incorporated, priority 2007, dated 2015).

Molecular target: T1, ΔF508-CFTR (Homo sapiens, UniProt P13569, DEL508-508)
T1 construct: expressed in transfected cells
Assay: ΔF508-CFTR correction, membrane potential optical (FRET/VIPR) assay
Format: cell-based
Conditions: NIH3T3 mouse fibroblasts stably expressing ΔF508-CFTR; for Emax: read-out: % Efficacy
Text: Assays for Detecting and Measuring ΔF508-CFTR Correction Properties of Compounds
Membrane potential optical methods for assaying ΔF508-CFTR modulation properties of compounds
The optical membrane potential assay utilized voltage-sensitive FRET sensors described by Gonzalez and Tsien (See Gonzalez, J. E. and R. Y. Tsien (1995) “Voltage sensing by fluorescence resonance energy transfer in single cells” Biophys J 69(4): 1272-80, and Gonzalez, J. E. and R. Y. Tsien (1997) “Improved indicators of cell membrane potential that use fluorescence resonance energy transfer” Chem Biol 4(4): 269-77) in combination with instrumentation for measuring fluorescence changes such as the Voltage/Ion Probe Reader (VIPR) (See Gonzalez, J. E., K. Oades, et al. (1999) “Cell-based assays and instrumentation for screening ion-channel targets” Drug Discov Today 4(9): 431-439).
These voltage sensitive assays are based on the change in fluorescence resonant energy transfer (FRET) between the membrane-soluble, voltage-sensitive dye, DiSBAC2(3), and a fluorescent phospholipid, CC2-DMPE, which is attached to the outer leaflet of the plasma membrane and acts as a FRET donor. Changes in membrane potential (Vm) cause the negatively charged DiSBAC2(3) to redistribute across the plasma membrane and the amount of energy transfer from CC2-DMPE changes accordingly. The changes in fluorescence emission were monitored using VIPR™ II, which is an integrated liquid handler and fluorescent detector designed to conduct cell-based screens in 96- or 384-well microtiter plates.
1. Identification of Correction Compounds
To identify small molecules that correct the trafficking defect associated with ΔF508-CFTR; a single-addition HTS assay format was developed. The cells were incubated in serum-free medium for 16 hrs at 37° C. in the presence or absence (negative control) of test compound. As a positive control, cells plated in 384-well plates were incubated for 16 hrs at 27° C. to “temperature-correct” ΔF508-CFTR. The cells were subsequently rinsed 3× with Krebs Ringers solution and loaded with the voltage-sensitive dyes. To activate ΔF508-CFTR, 10 μM forskolin and the CFTR potentiator, genistein (20 μM), were added along with Cl^−-free medium to each well. The addition of Cl^−-free medium promoted Cl^− efflux in response to ΔF508-CFTR activation and the resulting membrane depolarization was optically monitored using the FRET-based voltage-sensor dyes.
NIH3T3 mouse fibroblasts stably expressing ΔF508-CFTR are used for optical measurements of membrane potential. The cells are maintained at 37° C. in 5% CO2 and 90% humidity in Dulbecco's modified Eagle's medium supplemented with 2 mM glutamine, 10% fetal bovine serum, 1×NEAA, β-ME, 1× pen/strep, and 25 mM HEPES in 175 cm^2 culture flasks. For all optical assays, the cells were seeded at 30,000/well in 384-well matrigel-coated plates and cultured for 2 hrs at 37° C. before culturing at 27° C. for 24 hrs for the potentiator assay. For the correction assays, the cells are cultured at 27° C. or 37° C. with and without compounds for 16-24 hours Electrophysiological Assays for assaying ΔF508-CFTR modulation properties of compounds

T1 sequence (P13569 with tags, fused parts or gaps DEL508-508): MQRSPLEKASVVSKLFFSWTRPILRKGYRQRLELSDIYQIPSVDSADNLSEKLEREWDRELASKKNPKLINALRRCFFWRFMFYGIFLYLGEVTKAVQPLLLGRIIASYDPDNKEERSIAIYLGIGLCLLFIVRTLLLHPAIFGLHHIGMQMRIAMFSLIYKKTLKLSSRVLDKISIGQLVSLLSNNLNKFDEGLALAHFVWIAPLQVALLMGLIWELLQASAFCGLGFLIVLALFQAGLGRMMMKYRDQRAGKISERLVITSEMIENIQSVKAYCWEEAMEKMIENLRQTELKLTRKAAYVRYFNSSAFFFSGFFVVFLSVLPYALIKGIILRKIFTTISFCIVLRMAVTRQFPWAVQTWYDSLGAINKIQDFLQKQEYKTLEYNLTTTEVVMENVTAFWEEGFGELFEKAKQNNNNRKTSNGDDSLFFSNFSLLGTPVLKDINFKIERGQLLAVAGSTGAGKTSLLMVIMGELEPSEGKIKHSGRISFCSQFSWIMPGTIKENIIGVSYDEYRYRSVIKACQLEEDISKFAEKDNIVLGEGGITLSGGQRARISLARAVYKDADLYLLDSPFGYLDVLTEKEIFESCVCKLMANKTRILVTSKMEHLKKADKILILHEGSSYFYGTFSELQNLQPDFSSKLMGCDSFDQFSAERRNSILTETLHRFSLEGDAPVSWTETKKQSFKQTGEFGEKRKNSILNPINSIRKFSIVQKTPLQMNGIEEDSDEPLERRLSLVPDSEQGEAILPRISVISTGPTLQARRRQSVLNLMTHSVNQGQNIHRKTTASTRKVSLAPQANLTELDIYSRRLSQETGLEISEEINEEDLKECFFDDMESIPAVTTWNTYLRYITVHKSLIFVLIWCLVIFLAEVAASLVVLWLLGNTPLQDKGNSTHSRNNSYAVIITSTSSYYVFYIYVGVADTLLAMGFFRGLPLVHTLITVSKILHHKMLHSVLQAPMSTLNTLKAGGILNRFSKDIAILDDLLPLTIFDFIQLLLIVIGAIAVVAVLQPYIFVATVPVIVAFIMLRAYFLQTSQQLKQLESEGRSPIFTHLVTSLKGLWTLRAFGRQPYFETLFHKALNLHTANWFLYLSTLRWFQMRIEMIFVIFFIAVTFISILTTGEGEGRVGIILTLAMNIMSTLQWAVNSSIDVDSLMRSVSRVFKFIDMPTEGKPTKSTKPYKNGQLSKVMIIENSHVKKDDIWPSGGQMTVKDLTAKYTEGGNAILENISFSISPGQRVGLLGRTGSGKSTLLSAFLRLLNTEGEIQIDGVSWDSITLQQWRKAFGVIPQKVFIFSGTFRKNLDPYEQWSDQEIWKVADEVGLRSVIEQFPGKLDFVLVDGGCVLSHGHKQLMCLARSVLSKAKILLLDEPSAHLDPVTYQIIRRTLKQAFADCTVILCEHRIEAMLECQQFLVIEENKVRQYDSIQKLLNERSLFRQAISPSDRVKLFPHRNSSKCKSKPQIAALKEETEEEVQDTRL

EC50 [nM]	Emax [%]	SMILES
< 2000	50 to 100	Cc1ccc(NC(=O)C2(c3ccc4c(c3)CCC4)CC2)nc1-c1ccc(=O)[nH]c1 [Compound 115]
< 2000	> 100	COc1ncc(-c2nc(NC(=O)C3(c4ccc5c(c4)OC(F)(F)O5)CC3)ccc2C)cc1C(=O)O [Compound 53]
2000 to 5000	> 100	COc1ccc(-c2cccc(NC(=O)C3(c4ccc5c(c4)OCO5)CC3)n2)cn1 [Compound 94]
< 2000	50 to 100	Cc1ccc(NC(=O)C2(c3ccc4c(c3)OCCO4)CC2)nc1-c1c[nH]c(=O)c(C)c1 [Compound 60]
< 2000	50 to 100	Cc1ccc(NC(=O)C2(c3ccc4c(c3)OC(F)(F)O4)CC2)nc1-c1c[nH]c(=O)c(CO)c1 [Compound 1]
< 2000	> 100	Cc1ccc(NC(=O)C2(c3ccc4c(c3)OC(F)(F)O4)CC2)nc1-c1ccn(C)c(=O)c1 [Compound 41]
< 2000	50 to 100	Cc1cc(NC(=O)C2(c3ccc4c(c3)CCO4)CC2)nc(-c2cc[nH]c(=O)c2)c1 [Compound 70]
< 2000	50 to 100	COc1ccc(C2(C(=O)Nc3ccc(C)c(-c4cc[nH]c(=O)c4)n3)CC2)cc1 [Compound 26]
< 2000	> 100	COc1ccc(-c2nc(NC(=O)C3(c4ccc5c(c4)OC(F)(F)O5)CC3)ccc2Cl)cn1 [Compound 24]
< 2000	50 to 100	O=C(Nc1ccc(Cl)c(-c2ccc(=O)[nH]c2)n1)C1(c2ccc3c(c2)OC(F)(F)O3)CC1 [Compound 22]
< 2000	50 to 100	Cc1ncc(NC(=O)C2(c3ccc4c(c3)OC(F)(F)O4)CC2)nc1-c1ccc[nH]c1=O [Compound 54]
< 2000	> 100	COc1cc(-c2cc(C)cc(NC(=O)C3(c4ccc5c(c4)OC(F)(F)O5)CC3)n2)ccn1 [Compound 3]
< 2000	> 100	COc1cc(C)c(-c2nc(NC(=O)C3(c4ccc5c(c4)OC(F)(F)O5)CC3)cc(C)c2C)cn1 [Compound 89]
< 2000	50 to 100	CC(=O)Nc1cc(-c2nc(NC(=O)C3(c4ccc5c(c4)OC(F)(F)O5)CC3)ccc2C)c[nH]c1=O [Compound 4]
< 2000	> 100	COc1ccc(-c2nc(NC(=O)C3(c4ccc5c(c4)CCO5)CC3)cc(C)c2C)cn1 [Compound 101]
< 2000	> 100	Cc1cc(NC(=O)C2(c3ccc4c(c3)OC(F)(F)O4)CC2)nc(-c2ccc(=O)[nH]c2)c1C#N [Compound 96]
< 2000	> 100	Cc1ccc(NC(=O)C2(c3ccc4c(c3)OC(F)(F)O4)CC2)nc1-c1c[nH]c(=O)c(C)c1 [Compound 6]
< 2000	> 100	COc1ccc(-c2nc(NC(=O)C3(c4ccc5c(c4)OC(F)(F)O5)CC3)ccc2C)cn1 [Compound 37]
< 2000	50 to 100	Cc1ccc(NC(=O)C2(c3ccc4c(c3)OC(F)(F)O4)CC2)nc1-c1c[nH]c(=O)c(F)c1 [Compound 39]
< 2000	50 to 100	Cc1ncc(NC(=O)C2(c3ccc4c(c3)OC(F)(F)O4)CC2)nc1-c1ccc(=O)[nH]c1 [Compound 55]
< 2000	50 to 100	COc1cc(-c2nc(NC(=O)C3(c4ccc5c(c4)CCO5)CC3)cc(C)c2C)ccn1 [Compound 102]
< 2000	50 to 100	Cc1ccc(NC(=O)C2(c3ccc4c(c3)OC(F)(F)O4)CC2)nc1-c1c[nH]c(=O)c(C#N)c1 [Compound 42]
